From patent US9981969B2, “Imidazole derivatives and methods of use thereof for improving the pharmacokinetics of a drug” (MERCK SHARP & DOHME CORP., priority 2013, dated 2018)

What was measured:
CYP2D6 = molecular target: T1, CYP2D6 (Homo sapiens, UniProt P10635); assay: Cocktail assay for CYPs in human liver microsomes, dextromethorphan O-demethylation (2D6); type: biochemical; conditions: 5 μM dextromethorphan, 10 min at 37° C.
T1 construct: 0.1 mg/mL protein human liver microsomes (BD Gentest); tissue BD Gentest; host or cells: human liver microsomes
T1 sequence (P10635 whole entry): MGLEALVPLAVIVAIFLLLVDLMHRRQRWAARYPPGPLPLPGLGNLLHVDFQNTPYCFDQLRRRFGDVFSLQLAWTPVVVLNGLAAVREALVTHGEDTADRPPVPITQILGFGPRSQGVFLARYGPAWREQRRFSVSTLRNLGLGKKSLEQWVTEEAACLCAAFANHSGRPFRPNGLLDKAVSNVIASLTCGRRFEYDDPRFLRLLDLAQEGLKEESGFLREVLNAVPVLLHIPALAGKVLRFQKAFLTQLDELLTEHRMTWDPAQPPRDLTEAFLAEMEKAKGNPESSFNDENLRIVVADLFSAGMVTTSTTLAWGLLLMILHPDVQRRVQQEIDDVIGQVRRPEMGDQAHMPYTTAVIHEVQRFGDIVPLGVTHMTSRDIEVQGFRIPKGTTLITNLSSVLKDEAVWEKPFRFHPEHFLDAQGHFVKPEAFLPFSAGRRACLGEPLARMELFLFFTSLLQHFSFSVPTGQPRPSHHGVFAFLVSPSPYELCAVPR
Procedure, shortened: (§1)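 Pooled human liver microsomes (0.1 mg/mL) with substrate cocktail (10 μM phenacetin, 5 μM diclofenac, 30 μM mephenytoin, 5 μM dextromethorphan), 1 mM NADPH, pH 7.4 phosphate, 10 min at 37 °C. Metabolites by LC/MS/MS; IC50 from % inhibition at 6 concentrations up to 10 μM.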

CYP2C9 = molecular target: T2, CYP2C9 (Homo sapiens, UniProt P11712); assay: Cocktail assay for CYPs in human liver microsomes, diclofenac 4′-hydroxylation (2C9); type: biochemical; conditions: 5 μM diclofenac, 10 min at 37° C.
T2 construct: 0.1 mg/mL protein human liver microsomes (BD Gentest); tissue BD Gentest; host or cells: human liver microsomes
T2 sequence (P11712 whole entry): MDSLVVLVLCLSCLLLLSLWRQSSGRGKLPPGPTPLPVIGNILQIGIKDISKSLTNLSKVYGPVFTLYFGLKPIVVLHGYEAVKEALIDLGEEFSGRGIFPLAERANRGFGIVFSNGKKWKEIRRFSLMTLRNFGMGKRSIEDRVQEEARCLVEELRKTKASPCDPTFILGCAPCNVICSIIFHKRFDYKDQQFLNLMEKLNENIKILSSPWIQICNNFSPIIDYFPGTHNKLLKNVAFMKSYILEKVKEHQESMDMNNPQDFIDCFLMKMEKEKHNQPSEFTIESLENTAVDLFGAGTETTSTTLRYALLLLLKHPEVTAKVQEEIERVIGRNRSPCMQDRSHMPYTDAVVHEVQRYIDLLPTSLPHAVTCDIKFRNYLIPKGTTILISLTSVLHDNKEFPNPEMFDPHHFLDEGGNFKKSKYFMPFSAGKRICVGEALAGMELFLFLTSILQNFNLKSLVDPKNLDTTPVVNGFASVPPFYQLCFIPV
Procedure, shortened: as §1

CYP2C19 = molecular target: T3, CYP2C19 (Homo sapiens, UniProt P33261); assay: Cocktail assay for CYPs in human liver microsomes, mephenytoin 4′-hydroxylation (2C19); type: biochemical; conditions: 30 μM mephenytoin, 10 min at 37° C.
T3 construct: 0.1 mg/mL protein human liver microsomes (BD Gentest); tissue BD Gentest; host or cells: human liver microsomes
T3 sequence (P33261 whole entry): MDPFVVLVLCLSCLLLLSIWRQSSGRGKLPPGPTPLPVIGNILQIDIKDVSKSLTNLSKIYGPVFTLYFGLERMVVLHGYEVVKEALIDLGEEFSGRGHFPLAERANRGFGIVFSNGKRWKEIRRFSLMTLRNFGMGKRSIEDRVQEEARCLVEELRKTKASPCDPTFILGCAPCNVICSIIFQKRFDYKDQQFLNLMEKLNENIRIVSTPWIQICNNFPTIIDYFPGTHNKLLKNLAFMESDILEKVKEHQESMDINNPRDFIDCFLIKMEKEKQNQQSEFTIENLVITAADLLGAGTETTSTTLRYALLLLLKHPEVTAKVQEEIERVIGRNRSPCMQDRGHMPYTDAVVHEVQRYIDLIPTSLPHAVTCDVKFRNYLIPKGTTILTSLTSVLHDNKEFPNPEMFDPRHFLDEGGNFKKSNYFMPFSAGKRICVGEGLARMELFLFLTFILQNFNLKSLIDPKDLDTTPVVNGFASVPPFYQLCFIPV
Procedure, shortened: as §1

human CYP11B1 = molecular target: T4, human CYP11B1 (Homo sapiens, UniProt P15538); assay: IC50 vs CYP11B1 by measurement of cortisol synthesis in V79 cells; type: cell-based; conditions: V79 cells expressing human CYP11B1, 1500 nM RSS, cortisol HTRF
T4 construct: expressed in transfected cells
T4 sequence (P15538 25-503): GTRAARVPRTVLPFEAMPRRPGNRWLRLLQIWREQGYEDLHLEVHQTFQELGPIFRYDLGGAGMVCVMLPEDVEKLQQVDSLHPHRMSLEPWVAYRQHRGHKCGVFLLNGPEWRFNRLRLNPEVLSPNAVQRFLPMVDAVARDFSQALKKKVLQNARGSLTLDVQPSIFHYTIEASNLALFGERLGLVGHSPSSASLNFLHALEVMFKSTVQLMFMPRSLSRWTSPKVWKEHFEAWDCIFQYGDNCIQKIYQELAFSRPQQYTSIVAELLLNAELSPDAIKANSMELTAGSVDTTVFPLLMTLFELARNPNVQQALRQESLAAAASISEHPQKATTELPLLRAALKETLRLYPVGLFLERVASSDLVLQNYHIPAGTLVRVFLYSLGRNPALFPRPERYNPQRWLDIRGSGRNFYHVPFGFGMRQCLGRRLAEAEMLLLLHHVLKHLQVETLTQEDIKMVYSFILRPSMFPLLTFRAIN
Procedure, shortened: (§2)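 V79 cells stably expressing CYP11B1 or CYP11B2 were treated with test compound at 10 concentrations (e.g. 10000 down to 0.5 nM), with 1500 nM RSS (CYP11B1) or 750 nM DOC (CYP11B2) as substrate. After ~15 h at RT in the dark, supernatant cortisol/aldosterone was measured by HTRF and back-calculated from a standard curve. IC50 was taken as the inflection point of a four-parameter fit.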

CYP3A4 = molecular target: T5, CYP3A4 (Homo sapiens, UniProt P08684); assay: Cocktail assay for CYPs in human liver microsomes, midazolam 1′-hydroxylation (3A4); type: biochemical; conditions: 2 μM midazolam, 10 min at 37° C.
T5 construct: 0.1 mg/mL protein human liver microsomes (BD Gentest); tissue BD Gentest; host or cells: human liver microsomes
T5 sequence (P08684 whole entry): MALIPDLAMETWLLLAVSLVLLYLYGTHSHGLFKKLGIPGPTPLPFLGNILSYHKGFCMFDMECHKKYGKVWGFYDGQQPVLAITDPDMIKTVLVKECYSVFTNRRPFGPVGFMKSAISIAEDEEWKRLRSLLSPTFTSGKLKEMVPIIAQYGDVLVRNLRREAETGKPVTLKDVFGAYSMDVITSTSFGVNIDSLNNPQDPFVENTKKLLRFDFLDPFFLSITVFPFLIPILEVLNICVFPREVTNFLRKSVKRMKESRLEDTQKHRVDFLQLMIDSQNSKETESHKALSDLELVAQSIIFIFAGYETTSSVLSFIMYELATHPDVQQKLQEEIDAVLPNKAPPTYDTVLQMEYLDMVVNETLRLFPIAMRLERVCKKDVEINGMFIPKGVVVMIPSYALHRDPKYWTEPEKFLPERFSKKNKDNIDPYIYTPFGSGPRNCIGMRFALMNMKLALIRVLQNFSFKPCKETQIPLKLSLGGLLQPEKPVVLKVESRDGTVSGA
Procedure, shortened: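 CYP3A4 inhibition was measured in human liver microsomes (0.1 mg/mL protein) with 2 μM midazolam as the probe substrate, 1 mM NAPDH, 3.3 mM MgCl2 and 100 mM potassium phosphate buffer (pH 7.4), incubated 10 min at 37° C. After acetonitrile treatment, metabolite was quantified by LC/MS/MS against a tolbutamide internal standard. Percent inhibition at 6 concentrations gave IC50 by SigmaPlot non-linear regression.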

CYP1A2 = molecular target: T6, CYP1A2 (Homo sapiens, UniProt P05177); assay: Cocktail assay for CYPs in human liver microsomes, phenacetin O-deethylation (1A2); type: biochemical; conditions: 10 μM phenacetin, 10 min at 37° C.
T6 construct: 0.1 mg/mL protein human liver microsomes (BD Gentest); tissue BD Gentest; host or cells: human liver microsomes
T6 sequence (P05177 1-516): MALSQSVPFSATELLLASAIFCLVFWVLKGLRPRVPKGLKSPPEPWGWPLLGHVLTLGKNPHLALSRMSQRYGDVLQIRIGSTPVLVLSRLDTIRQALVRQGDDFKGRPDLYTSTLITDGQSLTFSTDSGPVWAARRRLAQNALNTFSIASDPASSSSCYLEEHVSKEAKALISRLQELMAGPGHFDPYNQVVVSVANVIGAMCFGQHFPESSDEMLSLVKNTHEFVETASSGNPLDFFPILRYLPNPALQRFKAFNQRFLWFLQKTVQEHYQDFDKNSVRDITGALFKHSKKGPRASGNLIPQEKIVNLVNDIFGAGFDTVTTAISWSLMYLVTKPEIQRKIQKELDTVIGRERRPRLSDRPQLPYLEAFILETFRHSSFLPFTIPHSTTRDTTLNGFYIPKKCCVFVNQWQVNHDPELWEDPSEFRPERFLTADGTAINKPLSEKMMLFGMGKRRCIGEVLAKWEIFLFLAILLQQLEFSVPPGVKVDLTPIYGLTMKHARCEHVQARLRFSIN
Procedure, shortened: as §1

human CYP11B2 = molecular target: T7, human CYP11B2 (Homo sapiens, UniProt P19099); assay: IC50 vs CYP11B2 by measurement of aldosterone synthesis in V79 cells; type: cell-based; conditions: V79 cells expressing human CYP11B2, 750 nM DOC, aldosterone HTRF
T7 construct: expressed in transfected cells
T7 sequence (P19099 25-503): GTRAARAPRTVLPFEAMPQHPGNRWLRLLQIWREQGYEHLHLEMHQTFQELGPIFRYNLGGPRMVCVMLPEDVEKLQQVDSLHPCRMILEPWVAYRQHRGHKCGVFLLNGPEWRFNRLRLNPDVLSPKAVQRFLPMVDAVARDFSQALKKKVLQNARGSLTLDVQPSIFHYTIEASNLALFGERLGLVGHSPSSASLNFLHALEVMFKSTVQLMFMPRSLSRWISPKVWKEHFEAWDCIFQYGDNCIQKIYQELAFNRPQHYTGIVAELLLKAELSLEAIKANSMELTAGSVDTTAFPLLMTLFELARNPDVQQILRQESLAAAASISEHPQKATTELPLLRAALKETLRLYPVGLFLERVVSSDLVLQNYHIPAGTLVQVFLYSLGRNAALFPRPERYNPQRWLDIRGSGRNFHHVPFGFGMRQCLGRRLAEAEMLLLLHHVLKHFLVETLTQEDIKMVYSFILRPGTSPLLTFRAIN
Procedure, shortened: as §2

SMILES | IC50 (CYP2D6) | IC50 (CYP2C9) | IC50 (CYP2C19) | IC50 (human CYP11B1) | IC50 (CYP3A4) | IC50 (CYP1A2) | IC50 (human CYP11B2)
C[C@H]1CN(C(=O)c2cncn2[C@@H](C)c2ccccc2-c2ccc(F)cc2)CC[C@H]1N1CC[C@@H](O)C1 [Compound 32] | 8.38 µM | > 10 µM | > 10 µM | 22.5 µM | 0.0042 µM | > 10 µM | > 50 µM
CO[C@H]1CN(C(=O)c2cncn2[C@@H](C)c2ccccc2-c2ccc(F)cc2)CC[C@@H]1N1CCOC1=O [Compound 33] | 7.36 µM | > 10 µM | > 10 µM | > 50 µM | 0.0091 µM | > 10 µM | 23.6 µM
C[C@@H](c1ccccc1-c1ccccc1)n1cncc1C(=O)N1CCC2NCCO[C@@H]2C1 (stereo partly shown) [Compound 34] | 8.05 µM | > 10 µM | > 10 µM | 21.2 µM | 0.0068 µM | > 10 µM | > 50 µM
COCc1ccccc1-c1ccccc1[C@H](C)n1cncc1C(=O)N1CCC2NCCO[C@@H]2C1 (stereo partly shown) [Compound 35] | 9.1 µM | > 10 µM | > 10 µM | 20.4 µM | 0.0055 µM | > 10 µM | 25.8 µM
C[C@@H](c1ccccc1-c1cccc(F)c1)n1cncc1C(=O)N1CCC2NCCO[C@@H]2C1 (stereo partly shown) [Compound 36] | > 10 µM | > 10 µM | > 10 µM | 32.7 µM | 0.0096 µM | > 10 µM | > 50 µM
C[C@@H](c1ccccc1-c1cc(F)cc(F)c1)n1cncc1C(=O)N1CCC2NCCO[C@@H]2C1 (stereo partly shown) [Compound 37] | > 10 µM | > 10 µM | > 10 µM | 19.7 µM | 0.0097 µM | > 10 µM | > 50 µM
C[C@@H](c1ccccc1-c1ccc(F)cc1F)n1cncc1C(=O)N1CCC2NCCO[C@@H]2C1 (stereo partly shown) [Compound 38] | > 10 µM | > 10 µM | > 10 µM | 25.3 µM | 0.0089 µM | > 10 µM | > 50 µM
C[C@@H](c1ccccc1-c1ccc(F)c(F)c1F)n1cncc1C(=O)N1CCC2NCCO[C@@H]2C1 (stereo partly shown) [Compound 39] | 9.45 µM | > 10 µM | > 10 µM | 14.6 µM | 0.0048 µM | > 10 µM | > 50 µM
CCOc1ncccc1-c1ccccc1[C@H](C)n1cncc1C(=O)N1CCC2NCCO[C@@H]2C1 (stereo partly shown) [Compound 40] | > 10 µM | > 10 µM | > 10 µM | 33.3 µM | 0.0095 µM | > 10 µM | 25.9 µM
C[C@@H](c1ccccc1-c1ccc(Cl)nc1)n1cncc1C(=O)N1CCC2NCCO[C@@H]2C1 (stereo partly shown) [Compound 41] | 7.48 µM | > 10 µM | > 10 µM | 42.2 µM | 0.0071 µM | > 10 µM | > 50 µM
C[C@@H](c1ccccc1-c1ccccc1OC(F)(F)F)n1cncc1C(=O)N1CCC2NCCO[C@@H]2C1 (stereo partly shown) [Compound 42] | > 10 µM | > 10 µM | > 10 µM | 5.62 µM | 0.0047 µM | > 10 µM | > 50 µM
C[C@@H](c1ccccc1-c1cccc2c1OCC2)n1cncc1C(=O)N1CCC2NCCO[C@@H]2C1 (stereo partly shown) [Compound 43] | 7.09 µM | > 10 µM | > 10 µM | 30.3 µM | 0.0066 µM | > 10 µM | > 50 µM
COc1ccccc1-c1ccccc1[C@H](C)n1cncc1C(=O)N1CCC2NCCO[C@@H]2C1 (stereo partly shown) [Compound 44] | 5.86 µM | > 10 µM | > 10 µM | 12.2 µM | 0.005 µM | > 10 µM | > 50 µM
C[C@@H](c1ccccc1CN1CCC(F)CC1)n1cncc1C(=O)N1CCC2NCCO[C@@H]2C1 (stereo partly shown) [Compound 45] | > 10 µM | > 10 µM | > 10 µM | > 50 µM | 0.0077 µM | > 10 µM | > 50 µM
C[C@@H](c1ccccc1C(C)(C)F)n1cncc1C(=O)N1CCC2NCCO[C@@H]2C1 (stereo partly shown) [Compound 46] | 5.8 µM | > 10 µM | > 10 µM | > 50 µM | 0.0109 µM | > 10 µM | 23.1 µM
CC(C)c1ccccc1[C@H](C)n1cncc1C(=O)N1CCC2NCCO[C@@H]2C1 (stereo partly shown) [Compound 47] | 9.25 µM | > 10 µM | > 10 µM | 45.3 µM | 0.0085 µM | > 10 µM | 9.02 µM
